Blank lines part the entries; values can stand above or below the compound they belong to. The source made the active and inactive calls. No cut-off for these calls is given here. Where a SMILES comes first, the peptide text is derived from it. [ ]: non-standard residue; d: D form. The star is where a group is joined. Adenosine(5'-uronoyl) = Nc1ncnc2c1ncn2[C@@H]1O[C@H](C(=O)*)[C@@H](O)[C@H]1O; X1 = Nc1nccc(-c2ccc(C(=O)*)s2)n1; Ahx = NCCCCCC(=O)O
What was measured:
[1] = Displacement of fluorescent-ARC-1063 from recombinant bovine PKAc by luminescence intensity assay; parameters: species or system Bos taurus
[2] = Displacement of fluorescent-ARC-583/ARC-1042/ARC-1059 from His6-tagged recombinant human PKCeta S472D mutant by fluorescence anisotropy assay
[3] = Selectivity ratio of Kd for His6-tagged recombinant human ROCK2 to Kd for recombinant bovine PKAc
[4] = Displacement of fluorescent-ARC-583/ARC-1042/ARC-1059 from recombinant bovine PKAc by fluorescence anisotropy assay; parameters: species or system Bos taurus
[5] = target: T1, Rho-associated protein kinase 2 (Homo sapiens, UniProt O75116); test: Displacement of fluorescent-ARC-1042 from His6-tagged recombinant human ROCK2 by fluorescence anisotropy assay
Target sequence in this assay (O75116 whole entry): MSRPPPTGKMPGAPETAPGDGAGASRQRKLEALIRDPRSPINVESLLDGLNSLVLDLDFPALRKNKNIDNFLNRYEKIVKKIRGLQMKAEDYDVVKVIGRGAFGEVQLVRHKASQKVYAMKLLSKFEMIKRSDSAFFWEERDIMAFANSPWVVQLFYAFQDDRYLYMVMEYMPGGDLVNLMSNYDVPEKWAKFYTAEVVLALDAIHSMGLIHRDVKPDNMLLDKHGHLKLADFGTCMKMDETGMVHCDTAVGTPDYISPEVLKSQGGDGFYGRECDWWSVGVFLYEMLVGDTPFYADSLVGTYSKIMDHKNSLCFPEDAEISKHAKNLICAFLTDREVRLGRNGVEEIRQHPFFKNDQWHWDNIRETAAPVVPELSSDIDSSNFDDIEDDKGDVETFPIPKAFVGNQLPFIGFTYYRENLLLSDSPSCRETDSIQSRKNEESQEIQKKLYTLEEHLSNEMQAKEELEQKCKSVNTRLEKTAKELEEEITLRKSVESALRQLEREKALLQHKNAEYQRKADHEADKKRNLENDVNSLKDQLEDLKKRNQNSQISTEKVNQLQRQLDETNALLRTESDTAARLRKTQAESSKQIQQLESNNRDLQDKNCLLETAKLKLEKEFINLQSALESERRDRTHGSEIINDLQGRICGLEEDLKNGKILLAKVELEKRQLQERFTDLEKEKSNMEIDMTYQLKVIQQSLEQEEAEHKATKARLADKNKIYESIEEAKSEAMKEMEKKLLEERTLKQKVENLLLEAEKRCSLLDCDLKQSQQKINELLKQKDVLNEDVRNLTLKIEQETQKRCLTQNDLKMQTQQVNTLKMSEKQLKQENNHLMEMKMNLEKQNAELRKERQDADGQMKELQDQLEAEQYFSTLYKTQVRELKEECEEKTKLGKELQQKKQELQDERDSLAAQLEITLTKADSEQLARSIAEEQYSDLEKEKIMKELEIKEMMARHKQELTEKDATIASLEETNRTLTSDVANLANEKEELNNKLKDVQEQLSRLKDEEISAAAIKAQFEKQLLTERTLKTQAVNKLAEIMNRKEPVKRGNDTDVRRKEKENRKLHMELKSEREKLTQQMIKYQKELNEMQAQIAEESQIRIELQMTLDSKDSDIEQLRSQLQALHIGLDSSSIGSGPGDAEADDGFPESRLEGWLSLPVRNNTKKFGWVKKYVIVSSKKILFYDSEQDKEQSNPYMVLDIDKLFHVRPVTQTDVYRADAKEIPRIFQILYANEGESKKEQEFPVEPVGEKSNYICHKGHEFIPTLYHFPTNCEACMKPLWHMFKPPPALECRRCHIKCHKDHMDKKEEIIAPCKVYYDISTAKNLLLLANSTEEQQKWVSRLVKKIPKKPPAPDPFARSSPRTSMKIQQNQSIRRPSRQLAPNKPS

[6] = Displacement of fluorescent-ARC-583 from recombinant bovine PKAc by fluorescence anisotropy assay; parameters: species or system Bos taurus
[7] = target: T1, Rho-associated protein kinase 2; test: Displacement of fluorescent-ARC-1063 from His6-tagged recombinant human ROCK2 by luminescence intensity assay
Target sequence in this assay (O75116 whole entry): as above

[8] = target: Ribosomal protein S6 kinase alpha-5 (Homo sapiens, UniProt O75582); test: Displacement of fluorescent-ARC-583/ARC-1042/ARC-1059 from His6-tagged recombinant human MSK1 by fluorescence anisotropy assay
Sequence of Ribosomal protein S6 kinase alpha-5 (O75582 whole entry): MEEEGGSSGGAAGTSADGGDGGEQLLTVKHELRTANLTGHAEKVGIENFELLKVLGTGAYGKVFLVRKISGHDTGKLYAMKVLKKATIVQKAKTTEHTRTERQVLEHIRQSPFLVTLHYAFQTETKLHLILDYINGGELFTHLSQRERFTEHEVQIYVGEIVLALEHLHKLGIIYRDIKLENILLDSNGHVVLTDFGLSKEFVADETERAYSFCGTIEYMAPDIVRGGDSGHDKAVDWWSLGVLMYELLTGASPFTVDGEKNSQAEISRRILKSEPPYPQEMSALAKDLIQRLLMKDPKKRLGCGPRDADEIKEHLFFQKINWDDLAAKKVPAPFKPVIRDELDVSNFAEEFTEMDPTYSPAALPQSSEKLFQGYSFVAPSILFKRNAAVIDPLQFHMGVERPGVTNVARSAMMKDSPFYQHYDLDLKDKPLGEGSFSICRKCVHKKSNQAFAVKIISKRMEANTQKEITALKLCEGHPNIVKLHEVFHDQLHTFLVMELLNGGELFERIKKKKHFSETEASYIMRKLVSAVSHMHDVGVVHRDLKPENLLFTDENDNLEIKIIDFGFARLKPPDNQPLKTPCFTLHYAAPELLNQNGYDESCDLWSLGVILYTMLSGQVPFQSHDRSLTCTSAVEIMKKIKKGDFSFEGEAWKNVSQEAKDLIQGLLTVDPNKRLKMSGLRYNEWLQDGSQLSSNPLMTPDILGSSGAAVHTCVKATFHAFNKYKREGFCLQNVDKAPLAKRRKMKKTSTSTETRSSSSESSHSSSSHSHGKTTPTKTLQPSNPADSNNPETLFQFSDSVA

[9] = target: T1, Rho-associated protein kinase 2; test: Displacement of fluorescent-ARC-583/ARC-1042/ARC-1059 from His6-tagged recombinant human ROCK2 by fluorescence anisotropy assay
Target sequence in this assay (O75116 whole entry): as the sequence (O75116 whole entry) above

[10] = target: RAC-gamma serine/threonine-protein kinase (Homo sapiens, UniProt Q9Y243, S472D); test: Displacement of fluorescent-ARC-583/ARC-1042/ARC-1059 from His6-tagged recombinant human AKT3 S472D mutant by fluorescence anisotropy assay
Sequence of RAC-gamma serine/threonine-protein kinase (Q9Y243 2-479 S472D limits assumed): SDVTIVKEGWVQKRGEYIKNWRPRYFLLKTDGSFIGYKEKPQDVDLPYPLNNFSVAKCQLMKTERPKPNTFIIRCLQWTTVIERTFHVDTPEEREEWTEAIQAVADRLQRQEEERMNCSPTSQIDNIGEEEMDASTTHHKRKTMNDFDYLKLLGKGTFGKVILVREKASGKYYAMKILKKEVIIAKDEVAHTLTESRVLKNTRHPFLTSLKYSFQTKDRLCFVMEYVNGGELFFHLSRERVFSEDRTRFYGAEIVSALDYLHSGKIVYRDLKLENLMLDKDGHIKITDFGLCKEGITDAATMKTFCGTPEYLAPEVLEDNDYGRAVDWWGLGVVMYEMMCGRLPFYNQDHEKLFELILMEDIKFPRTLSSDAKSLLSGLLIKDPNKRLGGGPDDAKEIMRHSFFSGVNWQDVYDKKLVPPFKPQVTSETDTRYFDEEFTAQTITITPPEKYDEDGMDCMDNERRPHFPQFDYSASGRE

[11] = target: T2, cGMP-dependent protein kinase 1 (Homo sapiens, UniProt Q13976); test: Displacement of fluorescent-ARC-583/ARC-1042/ARC-1059 from His6-tagged recombinant human PKG1alpha by fluorescence anisotropy assay
T2 sequence (Q13976 whole entry): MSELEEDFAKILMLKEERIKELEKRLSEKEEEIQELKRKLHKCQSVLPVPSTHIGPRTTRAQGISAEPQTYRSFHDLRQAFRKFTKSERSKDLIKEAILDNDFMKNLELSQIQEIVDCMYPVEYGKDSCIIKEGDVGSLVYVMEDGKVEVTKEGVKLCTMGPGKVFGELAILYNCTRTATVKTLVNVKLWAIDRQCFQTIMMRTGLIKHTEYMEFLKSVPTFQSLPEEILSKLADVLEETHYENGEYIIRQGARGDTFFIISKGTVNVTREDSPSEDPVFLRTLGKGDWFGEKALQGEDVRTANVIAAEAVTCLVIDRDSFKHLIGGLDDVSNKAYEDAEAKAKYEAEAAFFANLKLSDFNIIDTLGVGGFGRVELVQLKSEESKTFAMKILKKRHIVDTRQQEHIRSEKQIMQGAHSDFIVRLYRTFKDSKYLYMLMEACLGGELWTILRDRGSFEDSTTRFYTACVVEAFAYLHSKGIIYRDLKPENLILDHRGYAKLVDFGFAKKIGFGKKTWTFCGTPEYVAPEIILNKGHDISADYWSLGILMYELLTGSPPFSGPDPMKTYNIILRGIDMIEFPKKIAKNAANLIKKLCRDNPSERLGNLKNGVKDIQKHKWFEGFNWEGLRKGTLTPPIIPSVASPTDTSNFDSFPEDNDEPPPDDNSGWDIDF

[12] = target: Ribosomal protein S6 kinase beta-1 (Homo sapiens, UniProt P23443); test: Displacement of fluorescent-ARC-583/ARC-1042/ARC-1059 from His6-tagged recombinant human p70S6K by fluorescence anisotropy assay
Sequence of Ribosomal protein S6 kinase beta-1 (P23443 whole entry): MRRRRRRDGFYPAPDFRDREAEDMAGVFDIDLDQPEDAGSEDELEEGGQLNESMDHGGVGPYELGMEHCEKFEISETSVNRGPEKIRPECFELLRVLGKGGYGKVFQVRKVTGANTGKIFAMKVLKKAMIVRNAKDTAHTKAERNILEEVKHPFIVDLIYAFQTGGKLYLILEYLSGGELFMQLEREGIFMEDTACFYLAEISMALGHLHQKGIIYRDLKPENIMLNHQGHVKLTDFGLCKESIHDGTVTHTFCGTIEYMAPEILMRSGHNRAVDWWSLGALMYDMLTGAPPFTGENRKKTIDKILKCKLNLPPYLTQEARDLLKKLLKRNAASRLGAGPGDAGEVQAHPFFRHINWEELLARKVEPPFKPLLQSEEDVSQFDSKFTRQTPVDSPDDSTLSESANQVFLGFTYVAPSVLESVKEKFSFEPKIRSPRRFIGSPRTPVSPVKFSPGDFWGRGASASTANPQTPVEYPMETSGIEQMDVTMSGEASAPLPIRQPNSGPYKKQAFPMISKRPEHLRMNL

[13] = organism: Bos taurus; test: Displacement of fluorescent-ARC-1063 from recombinant bovine PKAc by fluorescence anisotropy assay
[14] = target: T1, Rho-associated protein kinase 2; test: Displacement of fluorescent-ARC-1063 from His6-tagged recombinant human ROCK2 by fluorescence anisotropy assay
Target sequence in this assay (O75116 whole entry, looked up): as the sequence (O75116 whole entry) above

[15] = Inhibition of catalytic subunit of PKA
[16] = Inhibition of PKC
[17] = Binding affinity to PKAc
[18] = Binding affinity to PKG

Kd [1]: 25 nM | pIC50 [1]: 4.12 | pIC50 [2]: > 5 | Selectivity Index [3]: 0.56 | Kd [4]: 83 nM | pIC50 [4]: 6.16
SMILES: N=C(N)NCCC[C@@H](NC(=O)[C@@H](CCCNC(=N)N)NC(=O)CCCCCNC(=O)[C@@H](CCCCN)NC(=O)CCCCCCCN1CCCN(S(=O)(=O)c2cccc3cnccc23)CC1)C(N)=O

IC50 [7]: 977 nM | Kd [7]: 6.4 nM | IC50 [5]: 162 nM | Kd [5]: 7 nM
SMILES: NCCCC[C@@H](NC(=O)CCCCCNC(=O)[C@H]1O[C@@H](n2cnc3c(N)ncnc32)[C@H](O)[C@@H]1O)C(=O)NCCCCCC(=O)N[C@H](CCCN=C(N)N)C(=O)N[C@H](CCCN=C(N)N)C(N)=O

IC50 [5]: 16200 nM | Kd [5]: 690 nM | pIC50 [6]: > 4.5
SMILES: N=C(N)NCCC[C@@H](NC(=O)[C@@H](CCCNC(=N)N)NC(=O)CCCCCNC(=O)[C@H](CCCCN)NC(=O)CNCC(=O)NCCNS(=O)(=O)c1cccc2cnccc12)C(N)=O

pIC50 [5]: > 4.5 | Kd [6]: 2500 nM | pIC50 [6]: 4.78
SMILES: N=C(N)NCCC[C@@H](NC(=O)[C@@H](CCCNC(=N)N)NC(=O)CCCCCNC(=O)[C@@H](CCCCN)NC(=O)CNCC(=O)NCCNS(=O)(=O)c1cccc2cnccc12)C(N)=O

Kd [1]: 0.056 nM | pIC50 [1]: 6.78 | Selectivity Index [3]: 10
SMILES: N=C(N)NCCC[C@@H](NC(=O)[C@@H](CCCNC(=N)N)NC(=O)[C@@H](CCCNC(=N)N)NC(=O)[C@@H](CCCNC(=N)N)NC(=O)[C@@H](CCCNC(=N)N)NC(=O)[C@@H](CCCNC(=N)N)NC(=O)CCCCCNC(=O)[C@@H](CCCCN)NC(=O)CCCCCNC(=O)c1ccc(-c2ccnc(N)n2)s1)C(N)=O ({X1-Ahx}-[dK][Ahx][dR][dR][dR][dR][dR][dR]-NH2)

IC50 [8]: 4570 nM | Kd [8]: 1600 nM | IC50 [9]: 631 nM | Kd [9]: 27 nM | IC50 [10]: 9120 nM | Kd [10]: 7100 nM | IC50 [11]: 1860 nM | Kd [11]: 630 nM | IC50 [7]: 6760 nM | Kd [7]: 45 nM | IC50 [12]: 3310 nM | Kd [12]: 860 nM
SMILES: NCCCC[C@@H](NC(=O)CCCCCCCN1CCCN(S(=O)(=O)c2cccc3cnccc23)CC1)C(=O)NCCCCCC(=O)N[C@H](CCCN=C(N)N)C(=O)N[C@H](CCCN=C(N)N)C(N)=O

Kd [1]: 4.5 nM | pIC50 [1]: 4.87 | Kd [6]: 8.9 nM | pIC50 [6]: 7.22 | Selectivity Index [3]: 0.7
SMILES: N=C(N)NCCC[C@@H](NC(=O)[C@@H](CCCNC(=N)N)NC(=O)CCCCCNC(=O)[C@@H](CCCCN)NC(=O)CCCCCNC(=O)[C@H]1O[C@@H](n2cnc3c(N)ncnc32)[C@H](O)[C@@H]1O)C(N)=O

The remaining lines, values behind:

SMILES: N=C(N)NCCC[C@@H](NC(=O)[C@@H](CCCNC(=N)N)NC(=O)[C@@H](CCCNC(=N)N)NC(=O)[C@@H](CCCNC(=N)N)NC(=O)[C@@H](CCCNC(=N)N)NC(=O)[C@@H](CCCNC(=N)N)NC(=O)CNCC(=O)NCCNS(=O)(=O)c1cccc2cnccc12)C(N)=O
IC50 [5]: 151 nM | Kd [5]: 6.4 nM | Kd [6]: 120 nM | pIC50 [6]: 6.1

SMILES: N=C(N)NCCC[C@@H](NC(=O)[C@@H](CCCNC(=N)N)NC(=O)[C@@H](CCCNC(=N)N)NC(=O)[C@@H](CCCNC(=N)N)NC(=O)[C@@H](CCCNC(=N)N)NC(=O)[C@@H](CCCNC(=N)N)NC(=O)CCCCCNC(=O)[C@@H](CCCCN)NC(=O)CCNC(=O)CNCC(=O)NCCNS(=O)(=O)c1cccc2cnccc12)C(N)=O
IC50 [5]: 17.8 nM | Kd [5]: 0.7 nM | Kd [6]: 24 nM | pIC50 [6]: 6.79

SMILES: N=C(N)NCCC[C@@H](NC(=O)[C@@H](CCCNC(=N)N)NC(=O)[C@@H](CCCNC(=N)N)NC(=O)[C@@H](CCCNC(=N)N)NC(=O)[C@@H](CCCNC(=N)N)NC(=O)[C@@H](CCCNC(=N)N)NC(=O)CCCCCNCCNS(=O)(=O)c1cccc2cnccc12)C(N)=O
IC50 [8]: 81.3 nM | Kd [8]: 26 nM | IC50 [9]: 2.45 nM | Kd [9]: < 0.5 nM | IC50 [10]: 72.4 nM | Kd [10]: 55 nM | IC50 [11]: 41.7 nM | Kd [11]: 13 nM | IC50 [5]: 2.45 nM | Kd [5]: < 0.5 nM | Kd [6]: 0.53 nM | pIC50 [6]: 8.26 | IC50 [12]: 6.46 nM | Kd [12]: < 1 nM | Kd [2]: 980 nM | pIC50 [2]: 5.76 | Kd [4]: < 1 nM | pIC50 [4]: 8.26

SMILES: O=S(=O)(c1cccc2cnccc12)N1CCCNCC1 [FASUDIL]
Kd [1]: 420 nM | pIC50 [1]: 4.26

SMILES: N=C(N)NCCC[C@@H](NC(=O)[C@@H](CCCNC(=N)N)NC(=O)[C@@H](CCCNC(=N)N)NC(=O)[C@@H](CCCNC(=N)N)NC(=O)[C@@H](CCCNC(=N)N)NC(=O)[C@@H](CCCNC(=N)N)NC(=O)CCCCCNC(=O)[C@@H](CCCCN)NC(=O)CCCCCCCN1CCCN(S(=O)(=O)c2cccc3cnccc23)CC1)C(N)=O
Kd [1]: 3.3 nM | pIC50 [1]: 5.01 | inhibition [13]: Active | IC50 [7]: 10.2 nM | Kd [7]: 0.02 nM | inhibition [14]: Active | Selectivity Index [3]: 165

SMILES: NCCCC[C@@H](NC(=O)CCCCCNC(=O)c1ccc(-c2ccnc(N)n2)s1)C(=O)NCCCCCC(=O)N[C@H](CCCN=C(N)N)C(=O)N[C@H](CCCN=C(N)N)C(=O)N[C@H](CCCN=C(N)N)C(=O)N[C@H](CCCN=C(N)N)C(=O)N[C@H](CCCN=C(N)N)C(=O)N[C@H](CCCN=C(N)N)C(N)=O ({X1-Ahx}-[dK][Ahx][dR][dR][dR][dR][dR][dR]-NH2)
IC50 [7]: 2.75 nM | Kd [7]: 0.0056 nM

SMILES: O=S(=O)(NCCNC/C=C/c1ccc(Br)cc1)c1cccc2cnccc12
Kd [1]: 17 nM | pIC50 [1]: 4.3

SMILES: N=C(N)NCCC[C@@H](NC(=O)[C@@H](CCCNC(=N)N)NC(=O)[C@@H](CCCNC(=N)N)NC(=O)[C@@H](CCCNC(=N)N)NC(=O)[C@@H](CCCNC(=N)N)NC(=O)[C@@H](CCCNC(=N)N)NC(=O)CCCCCNC(=O)[C@H]1O[C@@H](n2cnc3c(N)ncnc32)[C@H](O)[C@@H]1O)C(N)=O
Kd [1]: 0.25 nM | pIC50 [1]: 6.12

SMILES: N=C(N)NCCC[C@H](NC(=O)[C@H](CCCNC(=N)N)NC(=O)[C@H](CCCNC(=N)N)NC(=O)[C@H](CCCNC(=N)N)NC(=O)[C@H](CCCNC(=N)N)NC(=O)[C@H](CCCNC(=N)N)NC(=O)[C@H](CO)NC(=O)CCNCCNS(=O)(=O)c1cccc2cnccc12)C(N)=O
IC50 [15]: 3 nM | IC50 [16]: 300 nM

SMILES: N=C(N)NCCC[C@@H](NC(=O)[C@@H](CCCNC(=N)N)NC(=O)CNCC(=O)NCCNS(=O)(=O)c1cccc2cnccc12)C(N)=O
pIC50 [5]: > 4.5

SMILES: N=C(N)NCCC[C@@H](NC(=O)[C@@H](CCCNC(=N)N)NC(=O)[C@@H](CCCNC(=N)N)NC(=O)[C@@H](CCCNC(=N)N)NC(=O)[C@@H](CCCNC(=N)N)NC(=O)[C@@H](CCCNC(=N)N)NC(=O)CCCCCNC(=O)[C@@H](CCCCN)NC(=O)CNCC(=O)NCCNS(=O)(=O)c1cccc2cnccc12)C(N)=O
IC50 [5]: 34.7 nM | Kd [5]: 1.5 nM | Kd [6]: 130 nM | pIC50 [6]: 6.07

SMILES: N=C(N)NCCC[C@@H](NC(=O)[C@@H](CCCNC(=N)N)NC(=O)[C@@H](CCCNC(=N)N)NC(=O)[C@@H](CCCNC(=N)N)NC(=O)[C@@H](CCCNC(=N)N)NC(=O)[C@@H](CCCNC(=N)N)NC(=O)CCCCCNC(=O)[C@@H](CCCCN)NC(=O)CCCCCNC(=O)[C@H]1O[C@@H](n2cnc3c(N)ncnc32)[C@H](O)[C@@H]1O)C(N)=O ({Adenosine(5'-uronoyl)-Ahx}-[dK][Ahx][dR][dR][dR][dR][dR][dR]-NH2)
Kd [1]: 0.26 nM | pIC50 [1]: 6.12 | IC50 [7]: 10.5 nM | Kd [7]: 0.021 nM | Selectivity Index [3]: 12

SMILES: NCCNS(=O)(=O)c1cccc2cnccc12
Ki [17]: 1900 nM | Ki [18]: 800 nM

From ChEMBL document CHEMBL2021921 (Bioorg Med Chem Lett, 2012)
